Here are results for two substances from paper PMC12020424, “Identification and Validation of Cyclic Peptides with Mucin-Selective, Location-Specific Binding in the Gastrointestinal Tract” (ACS Nano, 2025).

Bridge positions count the residues as written; N and C are the ends. Ends that are not written are not given here.

Test [1] has as its system MUC2-containing intestinal tissue (jejunal). Put plainly: Ex vivo fluorescent binding to small intestine tissue. Further details: species or system porcine. The settings on record: MUC2-selective peptides to small intestine. The source says: (§1) After identifying the peptide hits for each mucin, we tested their binding in an ex vivo setting (Figure S1), evaluating their interaction with mucin-containing porcine tissue and semiquantitatively representing it through fluorescent imaging (Figure 3a). The cyclic peptides were synthesized and conjugated to a fluorophore, Alexa Fluor 647 (AF647), at the N-terminus to allow fluorescent imaging to be used to semiquantitatively measure the peptides’ ex vivo tissue binding, compared to free AF647 and AF647 conjugated to wheat germ agglutinin (WGA), a known lectin for glycoproteins.[40] […] Porcine GI tissue was used due to its similarity in mucin expression compared to human GI tissue and its capacity to source large surface areas of tissue for experiments.[41],[42] Representative IVIS images are shown in Figure 3b-e, where the first four columns represent the four identified peptides (M2.1–M2.4 in Figure 3b,c, M5.1–M5.4 in Figure 3d,e), the fifth column represents WGA-AF647, and the sixth column represents AF647. The “score” results for the peptide ligands are presented in Figure 3f,g for the mucins of interest, with Tables S2–S5 and Figure S3 detailing results for the other tissues (the equation for calculating the “score” is found in the Materials and Methodssection). […] We also examined selectivity by incubating peptides on nontarget tissues. Figure 3h,i depicts the “selectivity” results for the MUC2-selective and MUC5AC-selective peptides, respectively. Selectivity was calculated by determining the ratio of the “score” for a particular mucin to the sum of the “scores” for all mucins (see the Materials and Methods section for the equation used).
(§2) The top-performing hits from phage display were tested on ex vivo segments of porcine mucin-containing tissues (jejunal, stomach, and esophageal tissues) obtained from local abattoirs or laboratory-maintained pigs. Tissue was used either immediately after acquisition or after storage at −80 °C; tissue was used at most 1 week after acquisition and storage at −80 °C. After acquisition and equilibration to room temperature, the tissue was washed twice with 25 mL (each) of cold 1× PBS to remove undigested food and other debris. After washing and cleaning, the tissue was mounted between two magnetic plates with holes corresponding to a 48-well plate, as previously described,[72] such that the luminal side of the tissue was facing up (Figure S1). After the tissue was mounted, the amount of peptide/protein corresponding to 40 μg of AF647 was suspended in 200 μL of 1× PBS and added to the wells created by the magnetic plates. This was done 3× for each formulation to perform the experiment in triplicate. In addition, plain 1× PBS was added to one well to serve as the background measurement. After the peptides were added, the plate setup was covered with aluminum foil and allowed to incubate for 1 h at room temperature with gentle agitation (50 rpm). After incubation, the nonbinding peptides were removed by pouring out the solutions onto a clean paper towel, and the setup was washed three times by adding 200 μL of 1× PBS to each well and gently agitating the setup for 30 s before removing the washing solution. After washing was complete, fluorescence imaging was performed using an IVIS Spectrum fluorescent imaging system (PerkinElmer), with an automatically calculated exposure time (usually ∼1 s), a 20 cm × 20 cm field of view, and an excitation/emission of 640/680 nm, respectively. The imaging results were analyzed using Living Image software to calculate the total fluorescence intensity for each well, and the results for each hit or control were averaged across different wells. The negative control used was unconjugated AF647, while the positive control was WGA-AF647, since WGA is a known lectin that binds glycoproteins.
(§3) To better account for tissue-to-tissue variability, the results for each trial were reported as scores rather than using the raw fluorescence intensity. […]

For test [2], the system named is MUC5AC-containing stomach tissue. Nature of the test: Ex vivo fluorescent binding to stomach tissue. Further details: species or system porcine. Conditions: MUC5AC-selective peptides to stomach.
Description: as §1
as §2, with “After the peptides were added, the plate setup was covered with aluminum foil and allowed to incubate for 1 h at room temperature with gentle agitation (50 rpm). After incubation, the nonbinding peptides were removed by pouring out the solutions onto a clean paper towel, and the setup was washed three times by adding 200 μL of 1× PBS to each well and gently agitating the setup for 30 s before removing the washing solution.” left out, “The negative control used was unconjugated AF647, while the positive control was WGA-AF647, since WGA is a known lectin that binds glycoproteins.” left out
as §3

For test [3], the system named is small intestine. Put plainly: In vivo gastrointestinal localization, small intestine. Further details: species or system Sprague–Dawley rats. The settings on record: AF647 conjugate, oral gavage, 1 mg/kg, fasted rats, n = 6, 6 h, segment fluorescence / sum of esophagus, stomach. As for the experimental part: To measure the gastrointestinal localization of these peptides in vivo, peptides M2.3 and M5.2 with conjugated AF647 dye (as a model drug) were administered via oral gavage to fasted Sprague–Dawley rats, along with unconjugated AF647 dye and WGA-AF647. After 6 h, localization was measured by using fluorescent imaging on the rats’ GI tracts. The major results of the total binding fluorescence and organ-specific binding fluorescence for M2.3, as well as the total binding fluorescence and organ-specific binding fluorescence for M5.2, along with results for the AF647 and WGA-AF647 in each case, are shown in Figure 4, with more detailed results found in Figure S9. All results have been adjusted by subtracting the fluorescence from tissue from untreated rats. […]
All animal studies were carried out under the supervision of MIT’s Division of Comparative Medicine and in compliance with NIH’s Principles of Laboratory Animal Care, following the guidelines set forth by MIT’s Committee on Animal Care. Sprague–Dawley rats (200–300 g, a mix of male and female) were obtained from Charles River Laboratories and allowed to acclimate to their new conditions for 1 week, following which their diet was adjusted to an alfalfa-free diet (AIN-93M, TestDiet) for at least 7 days prior to the study in order to reduce background fluorescence. […]

Test [4] concerns the target T1, MUC5AC (Homo sapiens, UniProt P98088). Nature of the test: Phage display (CX7C library) against MUC5AC, Sanger sequencing. It counts as binding. The settings on record: MUC5AC phage screening, third round of panning, 16 sequenced candidates. As for the experimental part:
For each mucin of interest, 5 μg of mucin protein was diluted in 150 μL of Tris-buffered saline (TBS) and added to 2 wells of a microtiter plate. The plate was left overnight in a humidified, sealed container with agitation at 50 rpm. After the overnight mucin coating, the solution was poured out, and 300 μL of blocking buffer was added to the wells for 1 h. After the 1 h waiting period, the blocking buffer was poured out, and the wells were washed three times with 300 μL of Tris-buffered saline with TBST (TBS + 0.1% (v/v) Tween-20) to remove nonspecific binding on the mucin layer coating. Next, 5 μL of the C7C library diluted with 95 μL of TBST was added to each blocked well and placed on shaker for 45 min, before pouring out the nonbinding phage and washing the plate ten times with TBST. A 0.2 M glycine-HCl elution buffer (pH 2.2, 100 μL) was added to each well and placed on a shaker for 20 min to release the mucin-layer binding peptides on the plate as unamplified eluate, with the pH neutralized by 30 μL of neutralization buffer (1 M Tris-HCl, pH 9).
E. coli liquid cultures were prepared by adding E. coli cells to 20 mL of LB media and placing them in shaking conditions at 37 °C and 250 rpm for 2 h and 45 min. The unamplified eluate (1 μL of which was saved for titering) was added to the E. coli cultures under the same conditions for 4 h and 45 min for amplification. […]

Test [5] concerns the target T1, MUC5AC. Put plainly: Phage ELISA on MUC5AC. It counts as binding. The settings on record: phage clones displaying the peptide, 10^7 PFU/μL, MUC5AC-coated plate, anti-M13/HRP, TMB, 450 nm, blank subtracted, three wells; vs random library and insertless phage. From the text:
We next sought to validate the binding efficiency of these identified phage clones. We tested phage clones displaying peptides M2.1, M2.2, M2.3, and M2.4 for binding to MUC2, and phage clones displaying peptides M5.1, M5.2, M5.3, and M5.4 for binding to MUC5AC. We utilized a bacteriophage enzyme-linked immunosorbent assay to test the binding of the peptide hits to the specific target mucins, MUC2 and MUC5AC (Figure 2d). The spectrophotometer reported absorbance values at 450 nm. The intensity of the absorbance signal is proportional to the amount of peptide-mucin binding present in each sample. The negative controls (library samples and insertless samples) served as references for nonspecific binding.
First, mucin was coated onto the surface of a plastic plate overnight using the same process as that performed for the original phage display. The next morning, three wells of each phage clone were prepared, with each phage solution having a titer of 10^7 PFU/μL to ensure a fair comparison between the clones. […]
However, instead of eluting the bound phage, 100 μL of 1:2000 anti-M13/HRP mouse monoclonal antibody was added to each well, and the antibody was allowed to incubate with the wells for 30 min. […] The resulting solutions were analyzed by absorbance spectroscopy at a wavelength of 450 nm to determine the relative amount of phage present in each well.
On the technique in general: In an ELISA, binding on a coated surface is turned into a signal by an enzyme label.

[6] abbreviates: scaled between free AF647 (0) and WGA-AF647 (1), mean across trials n = 3.

“Alexa Fluor 647-conjugated wheat germ agglutinin [WGA]”: the “Overall nanoparticle “score”” value in test [1] (setting [6]) and in test [2] (setting [6]) was 1 each time. Besides, the Selectivity in test [1] (score for MUC2 tissue / sum of scores for all mucins, n = 3) is listed as 0.333; in test [2] (score for MUC5AC tissue / sum of scores for all mucins, n = 3), 0.333. Also, in test [3], the “selectivity for the small intestine vs controls” value is listed as “did not demonstrate a significant improvement over the free dye”.

With “CSSASVEWC (disulfide 1-9 (inferred)) [Peptide M5.4, CX7C cyclic peptide hit for MUC5AC; AF647 conjugated at N-terminus in ex vivo tests]”, the “% Prevalence” value in test [4] turned out to be 6.25%. In addition, in test [5], the “phage ELISA binding vs negative controls” value is “significantly greater binding to MUC5AC than the random library and insertless phage”.
